Ends that are not written are not given here. * marks the point of attachment. Octanoyl = CCCCCCCC(=O)*

Experiment [1] deals with Aβ plaque. Particulars: 5×FAD mice with ghrelin treatment; cited from earlier work.
The test system of experiment [2] is miR-126. Nature of the experiment: qPCR of capillary miR-126 after ghrelin administration. The experiment is classed as in vivo, mouse. Particulars: 3×Tg-AD mice aged 9 months; ghrelin s.c. vs saline; P<0.05. An excerpt: (§1) Triple transgenic mice, 3×Tg-AD, containing three mutations ([…], APP Swedish and MAPT P301L), are widely used as an animal model of FAD. Age and gender-matched B6129SF2/J strain were used as the wild type (WT) control. Mice were obtained from the Jackson Laboratory and bred in our research institute's animal facility. Mice were housed in plastic cages on a 12 hr/12 hr light/dark cycle with ad libitum access to water and standard rodent diet. Animal usage was approved by California Medical Innovations Institute (CalMI2) Institutional Animal Care and Use Committee (IACUC). The genotyping was conducted in CalMI2 animal facilities at the age of 21 days by tail DNA extraction according to our previous protocol and the online information supplied by the vendor. […]
(§2) Total RNA was purified with Trizol reagent (Invitrogen), according to the manufacturer's instructions. To quantify miR-126-3p (MIMAT0000138), miR-145-5p (MIMAT0000157), miR-195-5p (MIMAT0000225), miR-21-5p (MIMAT0000530) and miR-29b-3p (MIMAT0000127), reverse transcription and quantitative PCR (qPCR) were performed using the TaqMan@ microRNA assay kit (Applied Biosystems) as previously described. […] Relative gene expression levels between wild type and 3×Tg-AD mice were determined using the comparative Ct (2^−ΔΔCt) method after normalizing to U6.

In experiment [3] the test system is Aβ oligomers. Briefly: Aβ oligomers (ELISA, immunoblot) in microvessel-depleted cortex and hippocampus after ghrelin. It counts as in vivo, mouse.
From the text: as §1, with “vendor. Ten mice per strain (3×Tg-AD, B6129SF2/J) at the ages of 6, 9, and 12 months were used in this study.” for “vendor.”
The method has been described previously. […] After centrifugation at 12,000 rpm for 20 min, protein content was determined by Bradford assay. […]
Human Aβ oligomers were analyzed in the microvessel-depleted cortex and hippocampal supernatant by enzyme-linked immunosorbent assay (ELISA; IBL International, Germany) according to manufacturer's instructions. […]

For experiment [4], the system named is miR-145. Briefly: qPCR of capillary miR-145 after ghrelin administration. The experiment is classed as in vivo, mouse. Particulars: 3×Tg-AD mice aged 9 months; ghrelin s.c. vs saline; P<0.05.
From the text: as §1, §2

Experiment [5] deals with RAGE. Nature of the experiment: Expression of Aβ transporters in isolated capillaries after ghrelin (immunofluorescence). The experiment is classed as in vivo, mouse. The settings on record: 3×Tg-AD mice aged 9 months; ghrelin vs saline-injected group.
From the text: as §1
(§3) The isolated microvessel fragments were smeared onto Superfrost Plus pre-cleaned glass microscope slides and fixed using ICC Fixation Buffer (BD Pharmingen) for 15 min at room temperature (RT). […] For coverage analysis, the percentage of PDGFRβ-positive pericyte area covering lectin-positive capillary area was quantified using Image J Area analysis as described previously. For the expression analysis of Aβ transporters, the area of LRP1, RAGE and Mdr1-occupied endothelium were measured as an area percentage normalized by the total area of lectin-positive capillaries using Image J Area measurement tool. […]

Experiment [6] concerns 5 capillary miRNAs (miR-126, miR-145, miR-195, miR-21, miR-29b). Briefly: qPCR of 5 capillary miRNAs after ghrelin administration. It counts as in vivo, mouse. The settings on record: 9 months 3×Tg mice; ghrelin 600 μg/kg per day, every 2 days for 2 weeks S.C. vs saline.
From the text: as §1
Total RNA was purified with Trizol reagent (Invitrogen), according to the manufacturer's instructions. To quantify miR-126-3p (MIMAT0000138), miR-145-5p (MIMAT0000157), miR-195-5p (MIMAT0000225), miR-21-5p (MIMAT0000530) and miR-29b-3p (MIMAT0000127), reverse transcription and quantitative PCR (qPCR) were performed using the TaqMan@ microRNA assay kit (Applied Biosystems) as previously described. […] Relative gene expression levels between wild type and 3×Tg-AD mice were determined using the comparative Ct (2^−ΔΔCt) method after normalizing to U6. […]

Experiment [7] deals with pericytes coverage of capillaries. Briefly: Pericyte coverage of isolated capillaries after ghrelin administration. Particulars: 3×Tg-AD mice aged 9 months; ghrelin s.c. per day every 2 days for 2 weeks vs vehicle (saline); P<0.001. The experiment is classed as in vivo, mouse.
From the text: as §1, §3

On to “n-octanoylated ghrelin (GSS(Octanoyl)FLSPEHQRVQQRKESKKPPAKLQPR; UniProt Q9UBU3 24-51, looked up) [neuropeptide "hunger hormone" generated from ghrelinergic cells of the gastrointestinal tract; n-octanoylated ghrelin from AnaSpec]”, for which, in experiment [1], the Aβ plaque burden entry is recorded as “no significant diminishment”. Moreover, the “expression level of capillary miR126 from hippocampus and cerebral cortex” value in experiment [2] is listed as “significant increase”. Moreover, in experiment [3] (3×Tg-AD mice aged 9 months, ghrelin vs vehicle, ELISA and immunoblot, vessels-depleted hippocampus and cortex, P<0.05), the “level of Aβ oligomers” value was “significantly lower level”. Also, the “Aβ levels (both APP and Aβ oligomers)” value in experiment [3] (9 months 3×Tg mice, ghrelin 600 μg/kg per day, every 2 days for 2 weeks S.C. vs saline, 6E10 and A11 antibodies) is “significantly lower”. In experiment [4], the “expression level of capillary miR-145 from hippocampus and cerebral cortex” value is given as “significant increase”. Also, in experiment [5], the “decline of relative expression of RAGE in isolated capillaries” value is given as about 10%. Moreover, the “expression levels of all 5 capillary miRNAs in hippocampus and cerebral cortex” value in experiment [6] is “significant increase”. In experiment [7], the “percentage of pericyte coverage” value is “increased significantly”.

The values are drawn from US20200071699A1, “TREATMENT OF ALZHEIMERS DISEASE WITH MICRO RNA AND GHRELIN” (priority 2018, published 2020).
